Consider 19 compounds from PubChem BioAssay AID328 (DTP/NCI, 2004).

The subject of this experiment is BDF1 mice, P388 leukemia ip, median survival T/C. Put plainly: NCI In Vivo Anticancer Drug Screen. Data for tumor model P388 Leukemia (intraperitoneal) in B6D2F1 (BDF1) mice. The following applies: endpoint: median survival time, higher = longer survival. In short, it runs like this: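 Read-out is survival of treated animals expressed relative to the vehicle group, as a T/C ratio.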

Setting [1] is: dose: 25.0 mg/kg/injection, schedule: Q01DX009 (ip), vehicle: Klucel (hydroxypropylcellulose) (HPC).
[2] abbreviates: dose: 12.5 mg/kg/injection, schedule: Q04DX003 (ip), vehicle: saline with Tween-80.
The mark [3] stands for this setting: dose: 50.0 mg/kg/injection, schedule: Q01DX009 (ip), vehicle: saline with Tween-80.
The mark [4] stands for this setting: dose: 50.0 mg/kg/injection, schedule: Q04DX003 (ip), vehicle: saline with Tween-80.
Setting [5] is: dose: 100.0 mg/kg/injection, schedule: Q01DX009 (ip), vehicle: saline with Tween-80.
The mark [6] stands for this setting: dose: 200.0 mg/kg/injection, schedule: Q04DX003 (ip), vehicle: saline with Tween-80.
Setting [7] is: dose: 100.0 mg/kg/injection, schedule: Q01DX009 (ip), vehicle: saline.
Where [8] appears, read: dose: 100.0 mg/kg/injection, schedule: Q04DX003 (ip), vehicle: saline.
Setting [9] is: dose: 200.0 mg/kg/injection, schedule: Q04DX003 (ip), vehicle: saline.
Where [10] appears, read: dose: 25.0 mg/kg/injection, schedule: Q04DX003 (ip), vehicle: saline with Tween-80.
Setting [11] is: dose: 100.0 mg/kg/injection, schedule: Q04DX003 (ip), vehicle: saline with Tween-80.
Where [12] appears, read: dose: 200.0 mg/kg/injection, schedule: Q01DX009 (ip), vehicle: saline with Tween-80.
Where [13] appears, read: dose: 400.0 mg/kg/injection, schedule: Q01DX009 (ip), vehicle: saline with Tween-80.
Where [14] appears, read: dose: 400.0 mg/kg/injection, schedule: Q04DX003 (ip), vehicle: saline with Tween-80.
Setting [15] is: dose: 50.0 mg/kg/injection, schedule: Q01DX009 (ip), vehicle: Klucel (hydroxypropylcellulose) (HPC).
The mark [16] stands for this setting: dose: 100.0 mg/kg/injection, schedule: Q01DX009 (ip), vehicle: Klucel (hydroxypropylcellulose) (HPC).

Values joined by “and” are separate entries in the source; they are usually repeats but may differ in a detail not shown here. Equal values may be shown once. Toxic doses and inconclusive results are not listed.

In the case of `COc1ccc2c(c1OC)C1(CCN(C)C)CC(=O)CCC1C=C2` (stereo unspecified), the T/C is 90 % of control (dose: 6.25 mg/kg/injection, schedule: Q01DX009 (ip), vehicle: Klucel (hydroxypropylcellulose) (HPC)); 105 % of control (dose: 12.5 mg/kg/injection, schedule: Q01DX009 (ip), vehicle: Klucel (hydroxypropylcellulose) (HPC)); 86 % of control (dose: 12.5 mg/kg/injection, schedule: Q04DX003 (ip), vehicle: Klucel (hydroxypropylcellulose) (HPC)); 100 % of control under setting [1]; 108 % of control (dose: 25.0 mg/kg/injection, schedule: Q04DX003 (ip), vehicle: Klucel (hydroxypropylcellulose) (HPC)); 113 % of control (dose: 35.0 mg/kg/injection, schedule: Q01DX009 (ip), vehicle: Klucel (hydroxypropylcellulose) (HPC)). Further, the T/C is 100 % of control (dose: 50.0 mg/kg/injection, schedule: Q04DX003 (ip), vehicle: Klucel (hydroxypropylcellulose) (HPC)); 118 % of control (dose: 55.0 mg/kg/injection, schedule: Q01DX009 (ip), vehicle: Klucel (hydroxypropylcellulose) (HPC)); 118 % of control (dose: 80.0 mg/kg/injection, schedule: Q01DX009 (ip), vehicle: Klucel (hydroxypropylcellulose) (HPC)); 95 % of control (dose: 100.0 mg/kg/injection, schedule: Q04DX003 (ip), vehicle: Klucel (hydroxypropylcellulose) (HPC)); 100 % of control (dose: 120.0 mg/kg/injection, schedule: Q01DX009 (ip), vehicle: Klucel (hydroxypropylcellulose) (HPC)); 108 % of control (dose: 180.0 mg/kg/injection, schedule: Q01DX009 (ip), vehicle: Klucel (hydroxypropylcellulose) (HPC)).
`C(=N/NC1=NCCN1)/c1c2ccccc2c(/C=N\NC2=NCCN2)c2ccccc12`: the T/C by setting is: (dose: 1.56 mg/kg/injection, schedule: Q04DX002 (ip), vehicle: saline) 209 % of control; (dose: 3.12 mg/kg/injection, schedule: Q04DX002 (ip), vehicle: saline) 229 % of control; (dose: 6.25 mg/kg/injection, schedule: Q04DX002 (ip), vehicle: saline) 239 % of control; (dose: 12.5 mg/kg/injection, schedule: Q04DX002 (ip), vehicle: saline) 209 % of control; (dose: 25.0 mg/kg/injection, schedule: Q04DX002 (ip), vehicle: saline) 229 % of control; (dose: 50.0 mg/kg/injection, schedule: Q04DX002 (ip), vehicle: saline) 280 % of control.
Consider `CCOC(=O)C(Cc1ccc(N(CCCl)CCCl)cc1)NC(=O)C(Cc1ccccc1)NC=O` (stereo unspecified), for which the T/C under setting [2] was 118 % of control; the T/C under setting [3] is 168 % of control; the T/C under setting [4] was 172 % of control; the T/C under setting [5] is 90 % of control; the T/C (dose: 132.0 mg/kg/injection, schedule: Q04DX003 (ip), vehicle: saline with Tween-80) was 227 % of control; the T/C (dose: 133.0 mg/kg/injection, schedule: Q04DX003 (ip), vehicle: saline with Tween-80) is 200 % of control. Under setting [6], the T/C was 254 % of control and 215 % of control.
As to `C[C@@]1(O)CCCC[C@H]1O`, the T/C under setting [7] is 100 % of control; the T/C under setting [8] is 110 % of control; the T/C (dose: 200.0 mg/kg/injection, schedule: Q01DX009 (ip), vehicle: saline) is 100 % of control; the T/C under setting [9] is 100 % of control; the T/C (dose: 400.0 mg/kg/injection, schedule: Q04DX003 (ip), vehicle: saline) is 100 % of control.
`CC(=O)OCC(=O)[C@@]1(O)CC[C@H]2[C@@H]3C[C@H](F)C4=CC(=O)CC[C@]4(C)[C@H]3C(=O)C[C@@]21C`: the T/C (dose: 100.0 mg/kg/injection, schedule: Q01DX009 (ip), vehicle: other) was 100 % of control.
Take `O=c1[nH]c(Cl)nc2c(Cl)c(C(Cl)(Cl)Cl)nn12`: the T/C is 104 % of control (dose: 25.0 mg/kg/injection, schedule: Q01DX009 (ip), vehicle: saline with Tween-80); 113 % of control under setting [10]; 109 % of control under setting [3]; 120 % of control under setting [4]; 106 % of control under setting [5]; 93 % of control and 104 % of control under setting [11]. Also, the T/C reads like this: under setting [12], 109 % of control; under setting [13], 104 % of control; under setting [14], 86 % of control.
As to `COc1ccc(C2(C(=O)O)CCCC2)cc1`, the T/C is, setting by setting: under setting [5], 95 % of control; under setting [11], 104 % of control; under setting [12], 91 % of control; under setting [6], 100 % of control; under setting [13], 91 % of control; under setting [14], 112 % of control.
For `CN(C)P(=O)(N(C)C)N1CC1`, the T/C by setting is: (dose: 90.0 mg/kg/injection, schedule: Q04DX003 (ip), vehicle: saline) 192 % of control; under setting [8], 157 % of control; (dose: 135.0 mg/kg/injection, schedule: Q04DX003 (ip), vehicle: saline) 176 % of control; under setting [9], 233 % of control and 211 % of control.
With `O=C1c2ccccc2S(=O)(=O)c2cc(-c3nn[nH]n3)ccc21`, the T/C runs as follows: under setting [15], 106 % of control; under setting [16], 94 % of control; (dose: 200.0 mg/kg/injection, schedule: Q01DX009 (ip), vehicle: Klucel (hydroxypropylcellulose) (HPC)) 104 % of control.
`CCCCOP(=O)(O)CCCC.[Al]`: the T/C runs as follows: under setting [2], 97 % of control; under setting [10], 97 % of control; under setting [4], 91 % of control.
`C[N+](C)(C)CN1C(=O)c2ccccc2C1=O`: the T/C is, setting by setting: (dose: 50.0 mg/kg/injection, schedule: Q01DX009 (ip), vehicle: saline) 87 % of control; under setting [7], 100 % of control.
With `COC(=O)CCCCC(=O)OC`, the T/C is, setting by setting: under setting [5], 100 % of control; under setting [12], 100 % of control; under setting [13], 109 % of control.
Regarding `COc1ccc(C=Nc2cccc3ccccc23)cc1`, the T/C by setting is: (dose: 100.0 mg/kg/injection, schedule: Q01DX001 (ip), vehicle: saline sonified) 100 % of control; (dose: 200.0 mg/kg/injection, schedule: Q01DX001 (ip), vehicle: saline sonified) 100 % of control; (dose: 400.0 mg/kg/injection, schedule: Q01DX001 (ip), vehicle: saline sonified) 104 % of control.
With `CO[C@@H]1[C@H](O)CC[C@]2(CO2)[C@H]1[C@@]1(C)O[C@@H]1CC=C(C)C`, the T/C is 100 % of control (dose: 3.13 mg/kg/injection, schedule: Q01DX009 (ip), vehicle: saline with Tween-80); 97 % of control (dose: 6.25 mg/kg/injection, schedule: Q01DX009 (ip), vehicle: saline with Tween-80); 106 % of control (dose: 12.5 mg/kg/injection, schedule: Q01DX009 (ip), vehicle: saline with Tween-80); 98 % of control (dose: 12.5 mg/kg/injection, schedule: Q01DX009 (ip), vehicle: saline); 100 % of control (dose: 37.5 mg/kg/injection, schedule: Q01DX009 (ip), vehicle: saline with Tween-80).
Take `COC(OC)c1ccccc1`: the T/C is 99 % of control under setting [3], 115 % of control under setting [5] and 108 % of control under setting [12].
For the compound `CCC([NH-])=O.CCC([NH-])=O.[Pt+2]`, the T/C by setting is: (dose: 100.0 mg/kg/injection, schedule: Q04DX003 (ip), vehicle: water) 101 % of control; (dose: 200.0 mg/kg/injection, schedule: Q04DX003 (ip), vehicle: water) 101 % of control; (dose: 400.0 mg/kg/injection, schedule: Q04DX003 (ip), vehicle: water) 101 % of control.
As to `COc1cccc2c1C(=O)CC2`, the T/C under setting [1] is 100 % of control; the T/C under setting [15] is 100 % of control; the T/C (dose: 75.0 mg/kg/injection, schedule: Q04DX003 (ip), vehicle: Klucel (hydroxypropylcellulose) (HPC)) is 100 % of control; the T/C under setting [16] is 96 % of control; the T/C (dose: 150.0 mg/kg/injection, schedule: Q04DX003 (ip), vehicle: Klucel (hydroxypropylcellulose) (HPC)) was 95 % of control.
As to `CN1CCC/C(=C(/N)c2ccccc2)S1(=O)=O`, the T/C is 104 % of control under setting [3], 100 % of control under setting [5] and 104 % of control under setting [12].
With `NC(=O)c1ccccc1NC(=O)c1ccccc1C(=O)O`, the T/C was 99 % of control under setting [3], 151 % of control under setting [5] and 153 % of control under setting [12].
